According to publication PMC5797931 (Frontiers in Pharmacology, 2018):

Experiments:
[1] = human, in vivo; cited from earlier work
in vivo = experiment: in vivo; parameters: species or system piglets (Landrace × large white); conditions: male, Landrace × large white (Seghers Hybrid), pig, 120 ug
Experimental: The current study was approved by the ethical committee of the Faculties of Veterinary Medicine and Bioscience Engineering of Ghent University (EC2014/184). Care and use of animals was in full compliance with the national (Belgian Royal Decree, [2013]) and European legislation (Anonymous, [2010]). […] Opti®, 6 months: […], Leuven, Belgium) and drinking water. Natural light was provided by translucent windows and the stable temperature was 23.2 ± 0.56°C. Higher temperatures were obtained in the rescue decks through heating lamps. In all age groups, a double lumen catheter was placed in the jugular vein according to Gasthuys et al. ([2017b]). After surgery, the piglets were housed individually to avoid displacement of the catheters. During single housing, a cotton towel was added to the decks and stables to mimic the smell of the other piglets. During the experiments, the stables were enriched with hanging chains, rubber toys and balls of different sizes. The environmental enrichment was rotated daily. […] Afterwards, the snout was closed during 30 s to ensure full dissolution of the lyophilisate. […] The CT-scans were processed using VGStudioMax (Volume Graphics GmbH, Heidelberg, Germany) and the body surface area (BSA) was determined after visualization and selection of the body surface in 3D (UGCT-Department of Physics and Astronomy, Ghent University, Ghent, Belgium). The GFR was determined as the clearance of the exogenous marker exo-iohexol (Gasthuys et al., [2017a]). […] Desmopressin plasma concentrations were determined at Aarhus University Hospital (Aarhus, Denmark) using a validated radioimmunoassay method as described by Emmeluth et al. […] Subsequently, based on a visual exploration of the plasma concentration-time profiles obtained in the growing piglets, a two-compartmental disposition model and a dual-input were evaluated to describe the absorption of the sublingual desmopressin lyophilisate. […]

- CL/F (in vivo): 6580 mL/min
- Vd/F (in vivo): 131 L
- Cmax (in vivo; po): ~0.25 ng/mL
SMILES: NC(=O)CC[C@@H]1NC(=O)[C@H](Cc2ccccc2)NC(=O)[C@H](Cc2ccc(O)cc2)NC(=O)CCSSC[C@@H](C(=O)N2CCC[C@H]2C(=O)N[C@H](CCCN=C(N)N)C(=O)NCC(N)=O)NC(=O)[C@H](CC(N)=O)NC1=O [desmopressin, 1-desamino-8-D-arginine vasopressin]
- F, absolute oral bioavailability [1]: < 1%
